According to PubChem BioAssay (NCI):
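Abbreviation: GI50, concentration required for 50% inhibition of growth. Definition used: TGI = concentration required for complete inhibition of growth.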

What was measured:
Assay in all cases: DTP human tumour cell line panel, 384-well format
786-0 renal = test system: 786-0 renal
A498 renal = test system: A498 renal
A549 NSCLC = test system: A549 NSCLC
ACHN renal = test system: ACHN renal
BT-549 breast = test system: BT-549 breast
CAKI-1 renal = test system: CAKI-1 renal
CCRF-CEM leukemia = test system: CCRF-CEM leukemia
COLO 205 colon = test system: COLO 205 colon
DU-145 prostate = test system: DU-145 prostate
EKVX NSCLC = test system: EKVX NSCLC
HCC-2998 colon = test system: HCC-2998 colon
HCT-116 colon = test system: HCT-116 colon
HCT-15 colon = test system: HCT-15 colon
HL-60(TB) leukemia = test system: HL-60(TB) leukemia
HOP-62 NSCLC = test system: HOP-62 NSCLC
HOP-92 NSCLC = test system: HOP-92 NSCLC
HS 578T breast = test system: HS 578T breast
HT29 colon = test system: HT29 colon
IGROV1 ovarian = test system: IGROV1 ovarian
K-562 leukemia = test system: K-562 leukemia
KM12 colon = test system: KM12 colon
LOX IMVI melanoma = test system: LOX IMVI melanoma
M14 melanoma = test system: M14 melanoma
MALME-3M melanoma = test system: MALME-3M melanoma
MCF7 breast = test system: MCF7 breast
MDA-MB-231 breast = test system: MDA-MB-231 breast
MDA-MB-435 melanoma = test system: MDA-MB-435 melanoma
MDA-MB-468 breast = test system: MDA-MB-468 breast
MOLT-4 leukemia = test system: MOLT-4 leukemia
NCI-H226 lung = test system: NCI-H226 lung
NCI-H23 lung = test system: NCI-H23 lung
NCI-H322M lung = test system: NCI-H322M lung
NCI-H460 NSCLC = test system: NCI-H460 NSCLC
NCI-H522 lung = test system: NCI-H522 lung
NCI/ADR-RES ovarian = test system: NCI/ADR-RES ovarian
OVCAR-3 ovarian = test system: OVCAR-3 ovarian
OVCAR-4 ovarian = test system: OVCAR-4 ovarian
OVCAR-5 ovarian = test system: OVCAR-5 ovarian
OVCAR-8 ovarian = test system: OVCAR-8 ovarian
PC-3 prostate = test system: PC-3 prostate
RPMI-8226 leukemia = test system: RPMI-8226 leukemia
RXF 393 renal = test system: RXF 393 renal
SF-268 CNS = test system: SF-268 CNS
SF-295 CNS = test system: SF-295 CNS
SF-539 CNS = test system: SF-539 CNS
SK-MEL-2 melanoma = test system: SK-MEL-2 melanoma
SK-MEL-28 melanoma = test system: SK-MEL-28 melanoma
SK-MEL-5 melanoma = test system: SK-MEL-5 melanoma
SK-OV-3 ovarian = test system: SK-OV-3 ovarian
SN12C renal = test system: SN12C renal
SNB-19 CNS = test system: SNB-19 CNS
SNB-75 CNS = test system: SNB-75 CNS
SR leukemia = test system: SR leukemia
SW-620 colon = test system: SW-620 colon
T-47D breast = test system: T-47D breast
TK-10 renal = test system: TK-10 renal
U251 glioblastoma = test system: U251 glioblastoma
UACC-257 melanoma = test system: UACC-257 melanoma
UACC-62 melanoma = test system: UACC-62 melanoma
UO-31 renal = test system: UO-31 renal

SMILES: Cc1[nH]nc(C(F)(F)F)c1Cc1sc2c(c1C(=O)N1C[C@](C)(O)CO1)c(=O)n(C)c(=O)n2C(C)C
- GI50 ([…]-0 renal): > 26.9 µM
- TGI (786-0 renal): > 100 µM
- GI50 (A498 renal): > 100 µM
- TGI (A498 renal): > 100 µM
- GI50 (A549 NSCLC): > 21.2 µM
- TGI (A549 NSCLC): > 100 µM
- GI50 (ACHN renal): > 33.1 µM
- TGI (ACHN renal): > 100 µM
- GI50 (BT-549 breast): > 57 µM
- TGI (BT-549 breast): > 100 µM
- GI50 (CAKI-1 renal): > 47.6 µM
- TGI (CAKI-1 renal): > 80 µM
- GI50 (CCRF-CEM leukemia): 0.779 µM
- GI50 (COLO 205 colon): > 21.8 µM
- TGI (COLO 205 colon): > 100 µM
- GI50 (DU-145 prostate): > 30.5 µM
- TGI (DU-145 prostate): > 100 µM
- GI50 (EKVX NSCLC): > 100 µM
- TGI (EKVX NSCLC): > 100 µM
- GI50 (HCC-2998 colon): > 100 µM
- TGI (HCC-2998 colon): > 100 µM
- GI50 (HCT-116 colon): > 24.5 µM
- TGI (HCT-116 colon): > 100 µM
- GI50 (HCT-15 colon): 12.2 µM
- TGI (HCT-15 colon): > 100 µM
- TGI (HL-60(TB) leukemia): > 29.8 µM
- GI50 (HOP-62 NSCLC): > 27.3 µM
- TGI (HOP-62 NSCLC): > 100 µM
- GI50 (HOP-92 NSCLC): > 100 µM
- TGI (HOP-92 NSCLC): > 100 µM
- GI50 (HS 578T breast): 8.39 µM
- TGI (HS 578T breast): > 100 µM
- GI50 (HT29 colon): > 39.6 µM
- TGI (HT29 colon): > 100 µM
- GI50 (IGROV1 ovarian): > 100 µM
- TGI (IGROV1 ovarian): > 100 µM
- TGI (K-562 leukemia): > 100 µM
- GI50 (KM12 colon): > 31.6 µM
- TGI (KM12 colon): > 100 µM
- TGI (LOX IMVI melanoma): > 100 µM
- GI50 (M14 melanoma): > 33.7 µM
- TGI (M14 melanoma): > 100 µM
- GI50 (MALME-3M melanoma): > 77.9 µM
- TGI (MALME-3M melanoma): > 100 µM
- GI50 (MCF7 breast): > 82.5 µM
- TGI (MCF7 breast): > 100 µM
- GI50 (MDA-MB-231 breast): > 100 µM
- TGI (MDA-MB-231 breast): > 100 µM
- GI50 (MDA-MB-435 melanoma): > 69 µM
- TGI (MDA-MB-435 melanoma): > 100 µM
- GI50 (MDA-MB-468 breast): 4.75 µM
- TGI (MDA-MB-468 breast): 66.4 µM
- GI50 (MOLT-4 leukemia): 0.0847 µM
- GI50 (NCI-H226 lung): > 100 µM
- TGI (NCI-H226 lung): > 100 µM
- GI50 (NCI-H23 lung): > 27.1 µM
- TGI (NCI-H23 lung): > 100 µM
- GI50 (NCI-H322M lung): > 100 µM
- TGI (NCI-H322M lung): > 100 µM
- TGI (NCI-H460 NSCLC): > 100 µM
- GI50 (NCI-H522 lung): 2.15 µM
- TGI (NCI-H522 lung): 18.3 µM
- GI50 (NCI/ADR-RES ovarian): > 58.7 µM
- TGI (NCI/ADR-RES ovarian): > 100 µM
- GI50 (OVCAR-3 ovarian): > 29.3 µM
- TGI (OVCAR-3 ovarian): > 100 µM
- GI50 (OVCAR-4 ovarian): > 100 µM
- TGI (OVCAR-4 ovarian): > 100 µM
- GI50 (OVCAR-5 ovarian): > 78.6 µM
- TGI (OVCAR-5 ovarian): > 100 µM
- GI50 (OVCAR-8 ovarian): > 22.8 µM
- TGI (OVCAR-8 ovarian): > 100 µM
- GI50 (PC-3 prostate): > 100 µM
- TGI (PC-3 prostate): > 100 µM
- GI50 (RPMI-8226 leukemia): 20.9 µM
- TGI (RPMI-8226 leukemia): > 86 µM
- GI50 (RXF 393 renal): > 27.3 µM
- TGI (RXF 393 renal): > 100 µM
- TGI (SF-268 CNS): > 29.6 µM
- GI50 (SF-295 CNS): > 100 µM
- TGI (SF-295 CNS): > 100 µM
- GI50 (SF-539 CNS): > 27 µM
- TGI (SF-539 CNS): > 100 µM
- GI50 (SK-MEL-2 melanoma): 39.1 µM
- TGI (SK-MEL-2 melanoma): > 100 µM
- GI50 (SK-MEL-28 melanoma): > 100 µM
- TGI (SK-MEL-28 melanoma): > 100 µM
- TGI (SK-MEL-5 melanoma): > 100 µM
- GI50 (SK-OV-3 ovarian): > 100 µM
- TGI (SK-OV-3 ovarian): > 100 µM
- GI50 (SN12C renal): > 100 µM
- TGI (SN12C renal): > 100 µM
- GI50 (SNB-19 CNS): > 100 µM
- TGI (SNB-19 CNS): > 100 µM
- GI50 (SNB-75 CNS): > 41.9 µM
- TGI (SNB-75 CNS): > 100 µM
- GI50 (SR leukemia): > 100 µM
- TGI (SR leukemia): > 100 µM
- GI50 (SW-620 colon): > 24.4 µM
- TGI (SW-620 colon): > 100 µM
- GI50 (T-47D breast): > 100 µM
- TGI (T-47D breast): > 100 µM
- GI50 (TK-10 renal): > 100 µM
- TGI (TK-10 renal): > 100 µM
- GI50 (U251 glioblastoma): > 25 µM
- TGI (U251 glioblastoma): > 100 µM
- GI50 (UACC-257 melanoma): > 100 µM
- TGI (UACC-257 melanoma): > 100 µM
- TGI (UACC-62 melanoma): > 100 µM
- GI50 (UO-31 renal): 12.9 µM
- TGI (UO-31 renal): > 100 µM
